Earlier results on two molecules are cited in US20110256218A1, “CONTROLLED RELEASE COMPOSITIONS COMPRISING MECLIZINE OR RELATED PIPERAZINE DERIVATIVES” (EURAND, INC., priority 2010, published 2011).

Where a name gives a salt, the structure may show the parent alone.

For data set [1] the following is noted: weakly basic chemical entity.
For data set [2] the following is noted: in humans.
For data set [3] the following is noted: patients taking meclizine.
The conditions of data set [4]: in vivo.

As to `Cc1cccc(CN2CCN(C(c3ccccc3)c3ccc(Cl)cc3)CC2)c1` (stereo not drawn) [Meclizine 2HCl.H2O, 1-(p-chloro-α-phenylbenzyl)-4-(m-methylbenzyl)piperazine dihydrochloride monohydrate], the pKa (as a rule, the pH at which an ionisable group is half protonated) in data set [1] was 6.2.
On to `Cc1cccc(CN2CCN(C(c3ccccc3)c3ccc(Cl)cc3)CC2)c1` (centres unmarked) [meclizine], for which the plasma half-life result in data set [2] was “about 6 hours”. In data set [3], the “sedation reported (common side effect)” value is 20%-30%. Also, in data set [4], the “effects lasting (duration of action)” value was 8 to 24 h and the onset of action result is on record as “about 1 hour”.
